Assay results: paper PMC10376059, “New NADPH Oxidase 2 Inhibitors Display Potent Activity against Oxidative Stress by Targeting p22^phox-p47^phox Interactions” (Antioxidants, 2023)

Legend:
MTT cytotoxicity assay = format: cell-based, human; settings: human; HL-60 cells, 24 h, 10 mM, MTT; read-out: cell viability
Method: (§1) To verify the cytotoxicity of the acrylonitrile derivatives, the MTT reduction method was performed. Briefly, HL-60 cells were seeded in a flat-bottomed 96-well plate at a density of 10,000 cells per well. […] In a second series of experiments, cells were incubated under the same conditions but for 72 h. Etoposide was used as a positive control. Ten μL of MTT was added at a final concentration of 0.5 mg/mL, incubated at 37 °C for 4 h, and then solubilized with 10% SDS in 0.1 mM HCl and incubated overnight at 37 °C. Finally, a blue-colored compound (formazan) formation was measured at 570 nm in a multiplate reader (StatFax 4200, Awareness Technology, Inc., Palm City, FL, USA). The viability percentage was obtained as follows: Viability % = [treated cells DO × 100]/[DO cells control].

NOX2 = target: T1, NOX2 (Homo sapiens, UniProt P14598); experiment: NADPH oxidase (NOX2) inhibition, DCF fluorescence in PMA-activated neutrophil-differentiated HL-60 cells; format: cell-based; settings: for IC50: neutrophil-differentiated HL-60 cells, PMA 0.8 µM, DCF fluorescence, 0.05 to 50 µM
T1 construct: HL-60 cells expressed the components of NOX2, including gp91, p22^phox, p47^phox, and p67^phox; endogenous in cells; whole cells in A1, membrane preparations in A3 and A4
T1 sequence (P14598 1-390): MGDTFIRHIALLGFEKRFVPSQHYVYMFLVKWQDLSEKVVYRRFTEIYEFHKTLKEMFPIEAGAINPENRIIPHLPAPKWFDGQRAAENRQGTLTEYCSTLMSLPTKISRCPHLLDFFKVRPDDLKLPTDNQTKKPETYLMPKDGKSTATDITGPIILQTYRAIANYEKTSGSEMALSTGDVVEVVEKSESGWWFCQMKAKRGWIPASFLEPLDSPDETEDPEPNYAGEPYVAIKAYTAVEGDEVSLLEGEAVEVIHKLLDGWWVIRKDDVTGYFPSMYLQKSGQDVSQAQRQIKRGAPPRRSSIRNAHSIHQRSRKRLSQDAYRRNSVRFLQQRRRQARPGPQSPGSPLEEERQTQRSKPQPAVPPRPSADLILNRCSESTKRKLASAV
Method: The differentiation of HL-60 cells to neutrophils was performed after reaching a concentration of between 2 × 10^6 and 5 × 10^6 cells/mL in the differentiation medium: RPMI 1640 medium; 10% FBS; 100 IU/mL of penicillin/streptomycin; and 1.3% DMSO for 7 days, replenishing the differentiation medium every 2 days.
The 2′,7′-dichlorofluorescein (DCF) fluorescence analysis was used to determine NADPH oxidase activity in neutrophil-differentiated HL-60 cells. The method, based on a fluorimetric assay, was adapted from Boly et al.. Briefly, 1 × 10^6 neutrophil-differentiated HL-60 cells/mL were incubated for 45 min. at 37 °C in darkness with DCF-DA (1 mg/mL). The cell suspension was then transferred to a 15 mL conical tube and centrifuged at 330× g × 10 min at 37 °C. After the supernatant was removed, the cells were re-suspended in Hanks balanced saline buffer (HBSS, Sigma-Aldrich, St. Louis, MO, USA) and transferred to dark 96-well plates with a flat glass bottom (Thermo Scientific Nunc 96 microwell® black, Optical Botton # 1.5 Cover Glass Base, Thermo Fisher Scientific). Then, 200 μL of cell suspension per well were incubated at 37 °C for 30 min with the indole heteroaryl-acrylonitriles at increasing concentrations (0.05 to 50 μM). […] Finally, PMA (0.8 μM) was added to each well for 10 min. to generate the activation of NOX2. The generation of the DCF fluorescence product was monitored in an automatic microplate reader (FLx800, BioTek Instruments, Winooski, VT, USA) at 1-min intervals at 37 °C for 1 h, using an excitation wavelength of 485 nm and an emission wavelength of 555 nm. The ability to inhibit ROS production by activated neutrophil-differentiated HL-60 cells was compared against the different controls. A control was performed with cells activated by PMA in the presence of DMSO and established as having 100% of the ROS-induced fluorescence. Inhibition control was performed in the presence of VAS2870 (20 µM) and activated by PMA. Another control (NA, not activated) was done with cells in the absence of PMA and the indole heteroaryl-acrylonitriles.
All the experiments were performed in triplicate, using three different cell preparations, and the data were reported as mean ± s.e.m. For the determination of the IC50 of the indole heteroaryl-acrylonitriles, concentration-response curves (0.05 to 50 μM) were constructed. IC50 values were given as the mean ± standard deviation for at least three independent assays. The data were analyzed using one- and two-way ANOVA. A value of p < 0.05 was considered statistically significant. Statistical analyses were performed using the program GraphPad Prism® version 6.00, San Diego, CA, USA.

HL-60 cells = experiment: MTT cytotoxicity assay; format: cell-based, human; settings: 72 h, 0.01 µM to 100 µM, MTT
Method: as §1

[1] = DPPH radical scavenging activity; format: physicochemical
Method: The newly synthesized compounds were evaluated for 2,2-diphenyl-1-picrylhydrazyl […] free radical scavenging activity. The reduction and stabilization of DPPH by antioxidant compounds lead to discoloration, resulting in a decrease in absorbance at 517 nm, which was expressed as a percentage of the radical solution at a given concentration of discoloration. The heteroarylacrylonitrile derivatives were re-suspended in a minimum of DMSO at a final concentration of 5 mg/mL (stock solution). From these, they were diluted to concentrations of 1000, 500, and 100 μg/mL. These solutions were mixed with a methanol solution of DPPH (20 μg/mL) for 5 min. Each compound was evaluated in triplicate; absorbance at 517 nm in a UNICAM UV/visible spectrophotometer Helios-α (Thermo Electron Corporation, Waltham, MA USA) was measured by subtracting the solvent absorbance and comparing the resulting value with that of a blank sample. The percentage of discoloration was established according to the following formula: % Radical removal or discoloration = (1 − (AM − ABM)/AC) × 100, where AM is the absorbance of the sample compound, ABM is the absorbance of the sample blank, and AC is the absorbance of the control. The degree of discoloration indicates the efficacy of the compounds studied as free radical scavengers; therefore, a percentage of discoloration of 100 indicates the maximum radical scavenging capacity and a value close to 0 indicates a zero radical scavenging capacity. Quercetin was used as a reference compound in a concentration range of 1.25 to 7.5 μg/mL.

SMILES	IC50 (NOX2) [µM]	other results
N#C/C(=C\c1ccc(-c2ccc(Cl)cc2)o1)C(=O)c1c[nH]c2ccccc12 [Compound C1]	21.5 ± 0.3	viability at 24 h, 10 mM (MTT cytotoxicity assay): 60%
N#C/C(=C\c1ccc(-c2ccccc2)cc1)C(=O)c1c[nH]c2ccccc12 [Compound C3]	–	cytotoxicity (in words) (HL-60 cells): non-cytotoxic
N#C/C(=C\c1ccc(-c2ccc([N+](=O)[O-])cc2)o1)C(=O)c1c[nH]c2ccccc12 [Compound C7]	68.1 ± 1.2	–
CCc1ccc2occ(/C=C(\C#N)C(=O)c3c[nH]c4ccccc34)c(=O)c2c1 [Compound C11]	19.9 ± 0.2	–
N#C/C(=C\c1c(N)oc2ccccc2c1=O)C(=O)c1c[nH]c2ccccc12 [Compound C12]	21.1 ± 0.2	–
CC(C)(C)OC(=O)N1CCN(c2ccc(/C=C(\C#N)C(=O)c3c[nH]c4ccccc34)cc2)CC1 [Compound C15]	30.4 ± 0.3	–
N#C/C(=C\c1ccco1)C(=O)c1c[nH]c2ccccc12 [Compound C16]	82.7 ± 0.2	–
CC(=O)OCc1ccc(/C=C(\C#N)C(=O)c2c[nH]c3ccccc23)o1 [Compound C17]	19.7 ± 0.2	–
N#C/C(=C\c1ncc[nH]1)C(=O)c1c[nH]c2ccccc12 [Compound C18]	51.3 ± 0.2	–
Cn1ccnc1/C=C(\C#N)C(=O)c1c[nH]c2ccccc12 [Compound C19]	69.3 ± 0.2	–

Now from value to compound, other results behind:

IC50 (NOX2) [µM]	SMILES	other results
7.2 ± 0.3	Cc1nn(-c2ccccc2)c(Cl)c1/C=C(\C#N)C(=O)c1c[nH]c2ccccc12 [Compound C2]	–
7.1 ± 0.4	N#C/C(=C\c1ccc(N2CCOCC2)cc1)C(=O)c1c[nH]c2ccccc12 [Compound C4]	viability at 24 h, 10 mM (MTT cytotoxicity assay): 60%; antioxidant capacity, DPPH discoloration (in words) [1]: showed antioxidant capacity only at very high concentrations
6.2 ± 0.4	N#C/C(=C\c1cc(-c2ccc(F)cc2)on1)C(=O)c1c[nH]c2ccccc12 [Compound C5]	–
17.1 ± 0.2	CC(C)c1ccc2occ(/C=C(\C#N)C(=O)c3c[nH]c4ccccc34)c(=O)c2c1 [Compound C8]	viability at 24 h, 10 mM (MTT cytotoxicity assay): 60%; antioxidant capacity, DPPH discoloration (in words) [1]: showed antioxidant capacity only at very high concentrations
4.7 ± 0.3	Cc1ccc2occ(/C=C(\C#N)C(=O)c3c[nH]c4ccccc34)c(=O)c2c1 [Compound C9]	cytotoxicity (in words) (HL-60 cells): non-cytotoxic; antioxidant capacity, DPPH discoloration (in words) [1]: showed antioxidant capacity only at very high concentrations; inhibition of NOX2-derived ROS production (in words) (NOX2; PMA-activated HL-60 cells, 0.05 µM to 50 µM): exhibited concentration-dependent inhibition of NOX2
9.4 ± 0.3	N#C/C(=C\c1coc2ccccc2c1=O)C(=O)c1c[nH]c2ccccc12 [Compound C10]	viability at 24 h, 10 mM (MTT cytotoxicity assay): 60%
16.3 ± 0.2	N#C/C(=C\c1cccnc1)C(=O)c1c[nH]c2ccccc12 [Compound C13]	–
